Measurements reported in patent EP4741374A1, “TREPROSTINIL DERIVATIVE, AND PREPARATION METHOD THEREFOR AND USE THEREOF” (CF PharmTech HongKong Limited, priority 2023, dated 2025).

Key:
SD rats [1] = test: U46619-induced rat acute pulmonary arterial pressure rise model, airway nebulized administration (RVSP); format: in vivo
From the text: U46619 was a stable analogue of thromboxane A2 (TXA2), which activated the downstream IP3 signal by binding to the thromboxane A2 receptor to promote vasoconstriction, platelet aggregation and the like. Influences of compound C16-TR and equimolar compounds Ia-1, Ia-2, Ia-3, R-11 and R-12 at different time points after airway nebulized administration on pulmonary hypertension of rats were studied by using the U46619-induced rat pulmonary arterial pressure rise mode, which were compared with that of equimolar TRE after airway nebulized administration.
Preparation of test sample: a required amount of compound TRE was taken and added into a sterile EP tube, and each tube was added with an appropriate amount of DMSO for dissolution to prepare a stock solution (100 mg/mL). Compounds C16-TR, la-1, la-2, Ia-3, R-11 and R-12 were added with appropriate amounts of DMSO and dissolved in the original bottles to prepare stock solutions (100 mg/mL), and then the stock solutions were transferred to sterile EP tubes. Each above stock solution was hermetically stored in the dark in a refrigerator at 4°C. When the stock solution was tested, an appropriate amount of stock solution was taken and added into a new sterile EP tube, and diluted with DMSO and 1×PBS to a target concentration (working solution) wherein the solvent was 3% DMSO/1×PBS.
Preparation of modeling agent: 900 µL of methyl acetate was added into an original bottle of U46619 and mixed evenly to prepare 1 mg/mL(1 µg/µL) stock solution, which was divided into 10 µL (1 µg/µL) per sterile EP tube and stored in a refrigerator at -20°C. On the day of modeling, the stock solution was taken out and balanced at room temperature and constant temperature, and each tube was added with an appropriate amount of 0.9% sodium chloride solution (sterile) to be diluted 20-fold, so as to prepare a working solution with a concentration of 50 ng/µL.
Airway nebulized administration dosages of compound TRE and the test compounds were equimolar quantities calculated based on TRE. The dosage of compound TRE group (n=3) was 13.3 µg/kg, the dosage of compound C16-TR group (n=5) was 20.9 µg/kg, the dosage of compound Ia-1 group (n=3) was 21.2 µg/kg, the dosage of compound Ia-2 group (n=6) was 22.1 µg/kg, the dosage of compound Ia-3 group (n=6) was 23.1 µg/kg, the dosage of compound R-11 group (n=3) was 21.9 µg/kg, and the dosage of compound R-12 group (n=3) was 21.7 µg/kg. There were also a model control group (n=1) and a solvent control group (n=3).
The SD rats were injected with U46619 (25 µg /kg) through the left jugular vein at different time points after airway nebulized administration, the peak value of RVSP rise after injection with U46619 was observed and recorded, and the inhibition percentage on the RVSP rise was calculated by comparing with the basic RVSP value. The rats in the model control group were administered with U46619 by intravenous injection immediately after successful catheterization and measurement of the basic RVSP. RVSP of all animals were detected by right cardiac catheterization, and respiratory conditions of the animals were observed generally. Table-2 Time points of administrating U46619 in various groups

[2] = Stability of treprostinil derivative in ethanol/water solutions of different pH (light irradiation, 40°C, 60°C); format: physicochemical
Description: 1 mol/L hydrochloric acid and/or sodium hydroxide aqueous solution and distilled water were used to prepare 100 mL solutions with different pH values (3.0, 4.0, 5.0, 6.0, 7.0, 8.0, 9.0 and 10.0) for later use. 640 mg of compound Ia-2 was taken and added with 640 mL of 90% ethanol as a diluent to completely dissolve the compound, and then prepared into 1 mg/mL sample solution 1 for later use. • (1) […] of 90% ethanol, the sample solution 1 and 80 mL of each aqueous solution with different pH value (3.0, 5.0, 7.0 or 9.0) were taken and mixed evenly (ethanol: water =1.5: 1), and filled 2 mL per vial to obtain total 90 vials of samples, and the samples were divided into three groups equally for stability examination under the condition of light-irradiation, high-temperature of 40°C or high-temperature of 60°C. The samples of the two high-temperature stability examination groups were packaged in aluminum foil bags, 10 vials per bag; and the samples of the light-irradiation stability examination group were packaged in transparent bags, 10 vials per bag. • (2) 80 mL of 90% ethanol, the sample solution 1 and 80 mL of each aqueous solution with different pH value (4.0, 6.0, 8.0 or 10.0) were taken and mixed evenly (ethanol: water =2: 1), and then filled, grouped and packaged as above.
After the above samples were placed under conditions as described in Table-1, 15 vials of samples were taken from each group at each detection time point for detection for each pH value solution, comprising: the content of compound, the content of related substances (impurities) and liquid properties (whether there was turbidity, stratification or color change). The content of compound and the content of related substances were calculated by calculating the percentage of area occupied by the main ingredient through an area normalization method. Table-1 Placement conditions for stability examination of compound Ia-2

SD rats [3] = test: U46619-induced rat acute pulmonary arterial pressure rise model, low-dose airway nebulized administration (RVSP); format: in vivo; details: 1 hour after low-dose airway nebulized administration (about 3 µg/kg, equimolar)
From the text: In this experiment, airway nebulized administration dosages of the compounds were about 1/7 of airway nebulized administration dosages in Experimental Example 5. By using a U46619-induced rat acute pulmonary arterial pressure rise model, antihypertensive effects of the compounds of the present invention after airway nebulized administration were further verified by reducing the administration dosages.
A model construction method was the same as that described in Experimental Example 5. In this experiment, dosages of groups were as follows: the dosage of compound C16-TR group was 3 µg/kg, and the dosages of equimolar compounds Ia-1, Ia-2 and Ia-3 were 3.0 µg/kg, 3.2 µg/kg and 3.3 µg/kg respectively.
The SD rats were anesthetized and then administered by airway nebulization, and then the basic right ventricular systolic pressure (RVSP) was measured by right cardiac catheterization. The SD rats were intravenously injected with U46619 (25 µg /kg) at 1 hour after airway nebulized administration of each compound, a peak value of RVSP rise after injection with U46619 was observed and recorded, and the inhibition percentage on the RVSP rise was calculated by comparing with the basic RVSP value. The number of experimental animals in each group was 1~2.

content of compound ([2]; each group (pH 3-10), placement at 40°C for 30 days): higher than 80% | content of compound ([2]; ethanol: water 1.5:1 or 2.0:1, different pH values, after placement for 10 days): higher than 95% | ethyl ester impurities ([2]; extreme conditions: pH=3, 60°C for 30 days, pH=10, 40°C for 30 days or 60°C more than 10 days): 8.0~9.0% | ethyl ester impurities ([2]; high-temperature placement, other conditions): less than 4.0% | ethyl ester impurities ([2]; light irradiation, each group, after 10 days): less than 1.80% | content of compound ([2]; solution with pH=5.0~9.0, placement at 60°C for 30 days): higher than 90%
Compound: CCCCC[C@H](O)CC[C@@H]1[C@H]2Cc3cccc(OCC(=O)OCCCCCCCCOCCCCc4ccccc4)c3C[C@H]2C[C@H]1O [Compound Ia-2]
antihypertensive effect and duration, overall (SD rats [1]; 1 to 48 hours after airway nebulized administration, equimolar doses): stronger antihypertensive effects than C16-TR and longer durations | antihypertensive effect (SD rats [1]; 24 hours after airway nebulized administration, equimolar to 13.3 µg/kg TRE): obvious antihypertensive effects | antihypertensive effect (SD rats [1]; 48 hours after airway nebulized administration): absence of an antihypertensive effect | Inhibition percentage on RVSP rise (%) (mean) (SD rats [3]): 65.78%
